Biological target: T1, AsPC-1 HiBiT-KRASG12D (Homo sapiens, UniProt P01116, G12D)
T1 construct: insert the HiBiT tag onto the N-terminus of one or more of the endogenous KRAS alleles; endogenous in cells; host or cells: AsPC-1 (ATCC CRL-1682), CRISPR-Cas9 knock-in clone, one tagged allele
Assay: HiBiT degradation assay (G12D), AsPC-1 HiBiT-KRASG12D cells
Assay type: cell-based
Details: 24 hours treatment; for DC50: AsPC-1 HiBiT-KRASG12D cells, HiBiT luminescence; for Dmax: ASPC1, AsPC-1 HiBiT-KRASG12D cells, maximum degradation observed
Procedure, shortened: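 HiBiT-KRAS abundance was read as Nano-Glo HiBiT lytic luminescence (45 min, room temperature) after a PBS wash. Before that, a 4 h alamar blue fluorescence read, normalized to DMSO, monitored viability. Treatment lasted 24 hours at 37 °C, in triplicate, using AsPC-1 cells with endogenous N-terminally HiBiT-tagged KRAS G12D.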

T1 sequence (P01116 1-188 isoform P01116-2 G12D): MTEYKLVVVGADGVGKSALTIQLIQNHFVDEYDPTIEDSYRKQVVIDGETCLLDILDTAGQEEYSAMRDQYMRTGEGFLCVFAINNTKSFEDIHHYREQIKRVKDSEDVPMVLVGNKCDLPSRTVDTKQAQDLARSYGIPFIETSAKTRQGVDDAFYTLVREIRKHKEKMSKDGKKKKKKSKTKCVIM

Q: How did the DC50 turn out when CCc1cccc2cc(O)cc(-c3ncc4c(N5CC6CCC(C5)N6)nc(N5CCC(CN6CCC(CC7CN(c8cc([C@@H](C(=O)N9C[C@H](O)C[C@H]9C(=O)N[C@@H](C)c9ccc(-c%10scnc%10C)cc9)C(C)C)on8)C7)CC6)CC5)nc4c3F)c12 [Compound 193, (2S,4R)-1-[(2S)-2-(3-{3-[(1-{[1-(4-{3,8-diazabicyclo[3.2.1]octan-3-yl}-7-(8-ethyl-3-hydroxynaphthalen-1-yl)-8-fluoropyrido[4,3-d]pyrimidin-2-yl)piperidin-4-yl]methyl}piperidin-4-yl)methyl]azetidin-1-yl}-1,2-oxazol-5-yl)-3-methylbutanoyl]-4-hydroxy-N-[(1S)-1-[4-(4-methyl-1,3-thiazol-5-yl)phenyl]ethyl]pyrrolidine-2-carboxamide] was run?
A: > 3 µM

Q: For CCc1cccc2cc(O)cc(-c3ncc4c(N5CC6CCC(C5)N6)nc(OCCN5CCC(F)(CN6CCN(c7cc([C@H](C(=O)N8C[C@H](O)C[C@H]8C(=O)N[C@@H](C)c8ccc(-c9scnc9C)cc8)C(C)C)on7)[C@H](C)C6)CC5)nc4c3F)c12 [Compound 194, (2S,4R)-1-[(2R)-2-{3-[(2R)-4-[(1-{2-[(4-{3,8-diazabicyclo[3.2.1]octan-3-yl}-7-(8-ethyl-3-hydroxynaphthalen-1-yl)-8-fluoropyrido[4,3-d]pyrimidin-2-yl)oxy]ethyl}-4-fluoropiperidin-4-yl)methyl]-2-methylpiperazin-1-yl]-1,2-oxazol-5-yl}-3-methylbutanoyl]-4-hydroxy-N-[(1S)-1-[4-(4-methyl-1,3-thiazol-5-yl)phenyl]ethyl]pyrrolidine-2-carboxamide], which Dmax is on record?
A: 80 to 100%

Q: What about the DC50 of the same compound?
A: < 0.6 µM

Q: What does the source list for CCc1cccc2cc(O)cc(-c3ncc4c(N5CC6CCC(C5)N6)nc(OCCN5CCC(F)(CN6CCN(c7cc([C@@H](C(=O)N8C[C@H](O)C[C@H]8C(=O)N[C@@H](C)c8ccc(-c9scnc9C)cc8)C(C)C)on7)C[C@H]6C)CC5)nc4c3F)c12 [Compound 195, (2S,4R)-1-[(2S)-2-{3-[(3R)-4-[(1-{2-[(4-{3,8-diazabicyclo[3.2.1]octan-3-yl}-7-(8-ethyl-3-hydroxynaphthalen-1-yl)-8-fluoropyrido[4,3-d]pyrimidin-2-yl)oxy]ethyl}-4-fluoropiperidin-4-yl)methyl]-3-methylpiperazin-1-yl]-1,2-oxazol-5-yl}-3-methylbutanoyl]-4-hydroxy-N-[(1S)-1-[4-(4-methyl-1,3-thiazol-5-yl)phenyl]ethyl]pyrrolidine-2-carboxamide]?
A: Dmax: < 20%; DC50: 1 to 3 µM

Q: What does the source list for CCc1cccc2cc(O)cc(-c3ncc4c(N5CC6CCC(C5)N6)nc(OCCN5CCC(F)(CN6CCN(c7cc([C@@H](C(=O)N8C[C@H](O)C[C@H]8C(=O)N[C@@H](C)c8ccc(-c9scnc9C)cc8)C(C)C)on7)C[C@@H]6C)CC5)nc4c3F)c12 [Compound 196, (2S,4R)-1-[(2S)-2-{3-[(3S)-4-[(1-{2-[(4-{3,8-diazabicyclo[3.2.1]octan-3-yl}-7-(8-ethyl-3-hydroxynaphthalen-1-yl)-8-fluoropyrido[4,3-d]pyrimidin-2-yl)oxy]ethyl}-4-fluoropiperidin-4-yl)methyl]-3-methylpiperazin-1-yl]-1,2-oxazol-5-yl}-3-methylbutanoyl]-4-hydroxy-N-[(1S)-1-[4-(4-methyl-1,3-thiazol-5-yl)phenyl]ethyl]pyrrolidine-2-carboxamide]?
A: Dmax: 20 to 60%; DC50: 0.6 to 1 µM

Q: With CCc1cccc2cc(O)cc(-c3ncc4c(N5CC6CCC(C5)N6)nc(OCCN5CCC(F)(CN6CCN(c7cc([C@@H](C(=O)N8C[C@H](O)C[C@H]8C(=O)N[C@@H](C)c8ccc(-c9ccnn9C)cc8)C(C)C)on7)CC6)CC5)nc4c3F)c12 [Compound 197, (2S,4R)-1-[(2S)-2-(3-{4-[(1-{2-[(4-{3,8-diazabicyclo[3.2.1]octan-3-yl}-7-(8-ethyl-3-hydroxynaphthalen-1-yl)-8-fluoropyrido[4,3-d]pyrimidin-2-yl)oxy]ethyl}-4-fluoropiperidin-4-yl)methyl]piperazin-1-yl}-1,2-oxazol-5-yl)-3-methylbutanoyl]-4-hydroxy-N-[(1S)-1-[4-(1-methyl-1H-pyrazol-5-yl)phenyl]ethyl] pyrrolidine-2-carboxamide] as the compound, how does the Dmax read?
A: < 20%

Q: And the DC50?
A: 1 to 3 µM

Q: Which results are given for C#Cc1c(F)ccc2cc(O)cc(-c3ncc4c(N5CC6CCC(C5)N6)nc(OCCN5CCC(F)(CN6CCN(c7cc([C@H](C(=O)N8C[C@H](O)C[C@H]8C(=O)N[C@@H](C)c8ccc(-c9ccnn9C)cc8)C(C)C)on7)CC6)CC5)nc4c3F)c12 [Compound 198, (2S,4R)-1-[(2R)-2-(3-{4-[(1-{2-[(4-{3,8-diazabicyclo[3.2.1]octan-3-yl}-7-(8-ethynyl-7-fluoro-3-hydroxynaphthalen-1-yl)-8-fluoropyrido[4,3-d]pyrimidin-2-yl)oxy]ethyl}-4-fluoropiperidin-4-yl)methyl]piperazin-1-yl}-1,2-oxazol-5-yl)-3-methylbutanoyl]-4-hydroxy-N-[(1S)-1-[4-(1-methyl-1H-pyrazol-5-yl)phenyl]ethyl]pyrrolidine-2-carboxamide]?
A: Dmax: 80 to 100%; DC50: < 0.6 µM

Q: Which Dmax does the source give for CCc1cccc2cc(O)cc(-c3ncc4c(N5CC6CCC(C5)N6)nc(OCCN5CCC(F)(CN6CCN(c7cc([C@H](C(=O)N8C[C@H](O)C[C@H]8C(=O)N[C@@H](C)c8ccc(-c9ccnn9C)cc8)C(C)C)on7)CC6)CC5)nc4c3F)c12 [Compound 199, (2S,4R)-1-[(2R)-2-(3-{4-[(1-{2-[(4-{3,8-diazabicyclo[3.2.1]octan-3-yl}-7-(8-ethyl-3-hydroxynaphthalen-1-yl)-8-fluoropyrido[4,3-d]pyrimidin-2-yl)oxy]ethyl}-4-fluoropiperidin-4-yl)methyl]piperazin-1-yl}-1,2-oxazol-5-yl)-3-methylbutanoyl]-4-hydroxy-N-[(1S)-1-[4-(1-methyl-1H-pyrazol-5-yl)phenyl]ethyl] pyrrolidine-2-carboxamide] here?
A: 80 to 100%

Q: And the DC50?
A: < 0.6 µM

Q: CCc1cccc2cc(O)cc(-c3ncc4c(N5CC6CCC(C5)N6)nc(OCCN5CCC(F)(CN6CCN(c7cc([C@H](C(=O)N8C[C@H](O)C[C@H]8C(=O)N[C@@H](C)c8ccc(-c9scnc9C)cc8)C(C)C)on7)C[C@H]6C)CC5)nc4c3F)c12 [Compound 200, (2S,4R)-1-[(2R)-2-{3-[(3R)-4-[(1-{2-[(4-{3,8-diazabicyclo[3.2.1]octan-3-yl}-7-(8-ethyl-3-hydroxynaphthalen-1-yl)-8-fluoropyrido[4,3-d]pyrimidin-2-yl)oxy]ethyl}-4-fluoropiperidin-4-yl)methyl]-3-methylpiperazin-1-yl]-1,2-oxazol-5-yl}-3-methylbutanoyl]-4-hydroxy-N-[(1S)-1-[4-(4-methyl-1,3-thiazol-5-yl)phenyl]ethyl]pyrrolidine-2-carboxamide] was tested. Which Dmax did it give?
A: 60 to 80%

Q: And the DC50?
A: < 0.6 µM

Q: Which DC50 does the source give for CCc1cccc2cc(O)cc(-c3ncc4c(N5CC6CCC(C5)N6)nc(OCCN5CCC(CN6CCN(c7cc([C@@H](C(=O)N8C[C@H](O)C[C@H]8C(=O)N[C@@H](C)c8ccc(-c9ccnn9C)cc8)C(C)C)on7)CC6)CC5)nc4c3F)c12 [Compound 201, (2S,4R)-1-[(2S)-2-(3-{4-[(1-{2-[(4-{3,8-diazabicyclo[3.2.1]octan-3-yl}-7-(8-ethyl-3-hydroxynaphthalen-1-yl)-8-fluoropyrido[4,3-d]pyrimidin-2-yl)oxy]ethyl}piperidin-4-yl)methyl]piperazin-1-yl}-1,2-oxazol-5-yl)-3-methylbutanoyl]-4-hydroxy-N-[(1S)-1-[4-(1-methyl-1H-pyrazol-5-yl)phenyl]ethyl]pyrrolidine-2-carboxamide] here?
A: > 3 µM

Q: For CCc1cccc2cc(O)cc(-c3ncc4c(N5CC6CCC(C5)N6)nc(OCCN5CCC(CC6CCN(c7cc([C@H](C(=O)N8C[C@H](O)C[C@H]8C(=O)N[C@@H](C)c8ccc(-c9ccnn9C)cc8)C(C)C)on7)CC6)CC5)nc4c3F)c12 [Compound 202, (2S,4R)-1-[(2R)-2-(3-{4-[(1-{2-[(4-{3,8-diazabicyclo[3.2.1]octan-3-yl}-7-(8-ethyl-3-hydroxynaphthalen-1-yl)-8-fluoropyrido[4,3-d]pyrimidin-2-yl)oxy]ethyl}piperidin-4-yl)methyl]piperidin-1-yl}-1,2-oxazol-5-yl)-3-methylbutanoyl]-4-hydroxy-N-[(1S)-1-[4-(1-methyl-1H-pyrazol-5-yl)phenyl]ethyl]pyrrolidine-2-carboxamide], which Dmax is on record?
A: 80 to 100%

Q: What about the DC50 of the same compound?
A: < 0.6 µM

Q: Which Dmax does the source give for CCc1cccc2cc(O)cc(-c3ncc4c(N5CC6CCC(C5)N6)nc(OCCN5CCC(F)(CN6CCN(c7cc([C@@H](C(=O)N8C[C@H](O)C[C@H]8C(=O)N[C@@H](C)c8ccc(-c9scnc9C)cc8)C(C)C)on7)[C@@H](C)C6)CC5)nc4c3F)c12 [Compound 203, (2S,4R)-1-[(2S)-2-{3-[(2S)-4-[(1-{2-[(4-{3,8-diazabicyclo[3.2.1]octan-3-yl}-7-(8-ethyl-3-hydroxynaphthalen-1-yl)-8-fluoropyrido[4,3-d]pyrimidin-2-yl)oxy]ethyl}-4-fluoropiperidin-4-yl)methyl]-2-methylpiperazin-1-yl]-1,2-oxazol-5-yl}-3-methylbutanoyl]-4-hydroxy-N-[(1S)-1-[4-(4-methyl-1,3-thiazol-5-yl)phenyl]ethyl]pyrrolidine-2-carboxamide] here?
A: 20 to 60%

Q: And the DC50?
A: 1 to 3 µM

Source: patent US20250206732A1, “COMPOUNDS AND METHODS FOR THE TARGETED DEGRADATION OF KRAS” (Arvinas Operations, Inc., priority 2022, published 2025)
